Experiment [1] concerns Mus musculus. Put plainly: Compound was tested against P388 Leukemia cells in mouse at the dose of 150 mg/kg ip, activity expressed as T/C. It is filed as functional.
Experiment [2] relates to Mus musculus. Put plainly: Compound was tested against P388 Leukemia cells in mouse at the dose of 50 mg/kg ip, activity expressed as T/C. It counts as functional.
The target of experiment [3] is T1, Ornithine decarboxylase (Rattus norvegicus) (UniProt P09057).
T1 sequence (whole entry): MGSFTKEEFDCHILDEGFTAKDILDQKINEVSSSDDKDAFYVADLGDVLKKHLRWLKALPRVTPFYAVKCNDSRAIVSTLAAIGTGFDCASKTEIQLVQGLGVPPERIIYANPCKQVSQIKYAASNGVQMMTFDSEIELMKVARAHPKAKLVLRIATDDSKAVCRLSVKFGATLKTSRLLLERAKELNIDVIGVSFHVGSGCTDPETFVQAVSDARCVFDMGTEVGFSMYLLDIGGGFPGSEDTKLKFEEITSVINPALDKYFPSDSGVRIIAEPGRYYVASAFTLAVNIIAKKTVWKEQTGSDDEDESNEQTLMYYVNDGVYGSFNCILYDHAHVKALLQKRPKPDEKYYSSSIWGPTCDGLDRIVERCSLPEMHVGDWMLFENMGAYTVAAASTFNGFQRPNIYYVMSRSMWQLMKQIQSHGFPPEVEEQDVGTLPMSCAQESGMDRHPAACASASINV
As to the kind of experiment: Compound was tested for its inhibition against ornithine decarboxylase from rat liver at low concentration; NA means not active.

Active and inactive are the calls of the source. No cut-off for these calls is given here.

As to `CCP(=O)(O)C(N)CCCN.Cl` (stereo unspecified), the T/C in experiment [1] and in experiment [2] was 100 throughout. Also, in experiment [3], the result was inactive.
Regarding `CCP(=O)(O)C(C)(N)CCCN.Cl` (stereo unspecified), the T/C in experiment [1] and in experiment [2] was 98 throughout. For the same compound, the outcome in experiment [3] was inactive.

These data come from ChEMBL document CHEMBL1123051, “In the search for new anticancer drugs. 13. Phosphonic and phosphinic analogues of ornithine” (1985).
